In patent US20240238333A1 (Penland Foundation, priority 2023, published 2024):

Experiments:
[1] = system: substance P and glutamate; experiment: Clinical observation of suppression of substance P and glutamate by nitrous oxide; assay type: in vivo
Source text: The length of treatment to suppress the severe cytokine reaction will vary and be influenced by the time to medically correct the initiating factor. […] For children, adjustments will have to be made for age and body weight. […] Other inhalants can be included in the above-compositions such as for other purposes.

[2] = at effective dosages; cited from earlier work

## [N-]=[N+]=O [nitrous oxide]
[1]; average cases
  Duration of substance P suppression, average cases: 4 to 8 h
[1]; conscious sedation levels, about 50% nitrous oxide/about 50% oxygen
  duration of suppression of substance P and glutamate: 6 to 8 h
[2]
  respiratory depression, over sedation, or irritation of the lungs: does not cause respiratory depression, over sedation, or irritation of the lungs
